The results in this text go back to patent US20230145200A1, “COMPOSITIONS AND METHODS OF TREATING CANCER” (Tillead Therapeutics, Inc., priority 2020, published 2023).

Data set [1] deals with MC38 cells. As to the kind of experiment: Apoptosis flow cytometry assay (FITC Annexin V/PI). It is filed as cell-based, murine. As to conditions: for apoptosis induction in MC38 cells: agent alone: Venetoclax 3 μM, Doxorubicin 1 μM, Docetaxel 10 μM, Simvastatin 10 μM. The protocol: Cell lines and drugs: MC38 and B16 cell lines were derived from C57BL6 murine colon adenocarcinoma and melanoma cells, respectively. The cells were maintained in Dulbecco's modified Eagle's medium (DMEM) supplemented with 10% heat-inactivated fetal bovine serum (FBS) and 100 U/mL penicillin/streptomycin. The CT26 cells were derived from murine colon adenocarcinoma cells and cultured in RPMI1640 with 10% FBS and 2 mM GlutaMAX.
Apoptosis flow cytometry assay: FITC Annexin V Apoptosis Detection Kit with PI (BioLegend) was used for apoptosis detection. The MC38 cells were seeded in 24-well plate with 1×10^5 cells/well and cultured overnight. […] After 24 hours treatment, cells were collected and dissociated as single cell suspensions for Annexin V/PI staining. In briefing, cells were washed twice with cold BioLegend's Cell Staining Buffer, then resuspended in […] Annexin V Binding Buffer. […] FITC Annex V and […] Propidium Iodide (PI) Solution were added in each sample. The samples were gently vortexed and incubated for 15 minutes at room temperature in the dark. Wash the samples with Cell Staining Buffer one time and resuspend cells in […] Cell Staining Buffer for flow cytometry analysis. The data were recorded on BD Accuri™ C6 plus flow Cytometer and analyzed with FlowJo software.
On the technique in general: Flow cytometry measures light scatter and fluorescence of single cells or particles in a stream.

Data set [2] relates to IFNβ. Nature of the data set: Interferon-beta (IFNβ) ELISA assay of MC38 cell culture supernatants. Format: cell-based, murine. Particulars: 24 hours. On the procedure: The concentration of IFNβ was measured with VeriKine-HS Interferon Beta Serum ELISA Kit (PBL Assay Science) in accordance with the manufacturer's instruction. The data of absorbance was recorded at 450 nm by using BioTek synergy 4 plate reader and analyzed with GraphPad software.

In data set [3] the target is T1, caspase-3 (Mus musculus, UniProt P70677).
T1 construct: the cells were lysed in 25 μL 1× lysis buffer on ice for 20 min; endogenous in cells; host or cells: MC38 cells (lysate)
T1 sequence (P70677 29-175 limits assumed): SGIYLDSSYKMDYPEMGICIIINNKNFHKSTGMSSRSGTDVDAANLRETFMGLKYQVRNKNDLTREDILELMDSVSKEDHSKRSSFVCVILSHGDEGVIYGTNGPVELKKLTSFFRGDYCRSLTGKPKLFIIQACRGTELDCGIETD
T1 sequence (P70677 176-277 limits assumed): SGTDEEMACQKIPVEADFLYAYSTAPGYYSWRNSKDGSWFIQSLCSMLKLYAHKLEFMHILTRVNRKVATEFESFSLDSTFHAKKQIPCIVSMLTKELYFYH
Nature of the data set: Caspase-3 activity assay in MC38 cells. Format: cell-based, murine. The protocol:
Caspase-3 activity assay: Caspase-3 activity was measured by using Sigma Caspase 3 Assay Kit, Fluorimetric. In brief, MC38 cells were cultured in 96-well plates and treated with Docetaxel and Docetaxel/Emricasan combination, respectively. Dose-dependent effect of Docetaxel on caspase-3 activity was tested in MC38 cells; Docetaxel/Emricasan combination treatment was applied to reverse Docetaxel induced caspase-3 activity. After 24 h drug treatment, the cells were lysed in 25 μL 1× lysis buffer on ice for 20 min, then added 200 μL of 16.7 μM Ac-DEVD-AMC substrate solution to incubate at RT in the dark for 30 min. The fluorescent signals were read in BioTek Synergy 4 plate reader at excitation 360 nm and emission 460 nm.

The test system of data set [4] is MC38 cells. As to the kind of experiment: Tumor cell killing / cytotoxicity, MC38 (FIG. 11a). Format: cell-based, murine.
Data set [5] concerns A549. As to the kind of experiment: Tumor cell killing / cytotoxicity, A549 (FIG. 11b). As to conditions: with 10 μM of emricasan. It is filed as cell-based.
Data set [6] has as its system MiaPaca-2. Nature of the data set: Tumor cell killing / cytotoxicity, MiaPaca-2 (FIG. 11c). It is filed as cell-based. Particulars: with 10 μM of emricasan.
The subject of data set [7] is PD-L1. As to the kind of experiment: PD-L1 expression flow cytometry assay. Format: cell-based, murine. Particulars: MC38 cells; 1 μM Docetaxel, 10 μM Emricasan, or the combination; 24 h; FIG. 21. On the procedure:
PD-L1 expression flow cytometry assay: Cell surface PD-L1 expression was detected by flow cytometry assay. The cells were plated in 24-well plates and treated with 1 μM Docetaxel, 10 μM Emricasan, and the combination of the two drugs. Untreated cells were used as a control. After 24 h of treatment, the cells were dissociated and harvested for PD-L1 staining with BioLegend PE anti-mouse PD-L1 antibody (MIH7 clone). The PD-L1 expression was measured in BD Accuri C6 Plus flow cytometer, The mean density of PD-L1 was analyzed by FlowJo V10 software.

Data set [8] has as its system MC38 model. Nature of the data set: In vivo tumor growth study, MC38 model. More on the design: species or system mice. On the procedure: (§1) In vivo studies: Female C57BL6 and Balb/C mice of 9 weeks of age were obtained from the Jackson lab, ME. Passages were made twice weekly with a 1:2 split and cultured in DMEM:F12 supplemented with 10% FBS (HyClone, Ft. Collins, Colo.). For inoculation, approximately 5-8×10^5 cells were suspended in 100 μL of PBS (Becton Dickinson Labware, Bedford, Mass.) and injected subcutaneously into the flanks of mice. Most mice developed palpable tumors within 5 days of inoculation. Tumor bearing mice are grouped in cohorts of 5-8 mice for dosing studies. Mice with tumor sizes of 50-100 mm^3 are randomized between treatment groups. Baseline tumor volumes were established and dosing initiation began on day 0. Emricasan was administered as a salt intratumorally or interperitoneally for 3-4 days. If docetaxel was used, it was administered interperitoneally or intravenously in Tween80/PEG300 or Tween80/ethanol with PBS the day before emricasan was given. Emricasan and docetaxel were co-formulated in Tween80/PEG300 and co-administered intratumorally after diluting with PBS. Tumor volumes were measured twice a week using standard calipers and calculated as […], with the length and width defined as the long and short axes, respectively. Measurement of body weight was initiated on day 0 and repeated once a week.

The target of data set [9] is T2, caspase-3 (Homo sapiens, UniProt P42574).
T2 sequence (P42574 29-175 limits assumed): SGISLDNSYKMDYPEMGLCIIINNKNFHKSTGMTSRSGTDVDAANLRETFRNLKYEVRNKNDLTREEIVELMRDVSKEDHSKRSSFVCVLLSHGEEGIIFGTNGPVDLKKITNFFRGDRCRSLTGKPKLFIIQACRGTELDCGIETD
T2 sequence (P42574 176-277 limits assumed): T1 sequence (P70677 176-277 limits assumed) with T3V, E5D, E6D, Q10H, S46A, L50Q, H53D, L77F, S79A
As to the kind of experiment: Caspase activity in A549 tumor cells (FIG. 10b). Format: cell-based. More on the design: endogenous in cells; host or cells: A549 cells.

The target of data set [10] is T2, caspase-3. As to the kind of experiment: Caspase activity in MiaPaca-2 tumor cells (FIG. 10c). It is filed as cell-based. Further details: endogenous in cells; host or cells: MiaPaca-2 cells.
The subject of data set [11] is B16 model. As to the kind of experiment: In vivo tumor growth study, B16 model. Further details: species or system mice. Particulars: emricasan amine salt intratumorally 5 mpk and 10 mpk q.d 4 days, FIG. 19. On the procedure:
as §1, with “Mice with tumor sizes of 50-100 mm^3 are randomized between treatment groups.” left out

For data set [12], the system named is CT26 model. As to the kind of experiment: In vivo tumor growth study, CT26 model. More on the design: species or system mice. Particulars: emricasan amine salt intratumorally 5 mpk and 10 mpk q.d 4 days, FIG. 20. On the procedure:
as §1, with “Mice with tumor sizes of 50-100 mm^3 are randomized between treatment groups.” left out

[13] abbreviates: agent alone: simvastatin 10 μM, venetoclax 3 μM, doxorubicin 1 μM, docetaxel 10 μM.

Structures are written as SMILES. Substitutions are numbered along the chain they refer to. Entries after “also recorded” stand apart in the source; their conditions may differ.

Take `CC(=O)O[C@@]12CO[C@@H]1C[C@H](O)[C@@]1(C)C(=O)[C@H](O)C3=C(C)[C@@H](OC(=O)[C@H](O)[C@@H](NC(=O)OC(C)(C)C)c4ccccc4)C[C@@](O)([C@@H](OC(=O)c4ccccc4)[C@H]21)C3(C)C` [docetaxel]: in [1] (24 hours), the “apoptosis induction in MC38 cells” value is “induced substantial apoptosis”. Also, the “IFNβ production in MC38 cells” value in data set [2] (setting [13]) is “slightly reduced IFNβ production”. Moreover, the “docetaxel concentration activating caspase most efficiently” value was ~1 µM in [3] (MC38 cells, 24 h, FIG. 10a); ~1 µM in data set [9] (A549); ~1 µM in data set [10] (MiaPaca-2). The “docetaxel concentration killing tumor cells more efficiently” value in [4] (MC38, with 10 μM of emricasan, FIG. 11a) was ~1 µM; in data set [5] it was ~1 µM; in [6], ~1 µM. The “cytotoxicity in several tumor cells” value in [4] (several tumor cells (FIG. 11a-c: MC38, A549, MiaPaca-2)) is reported as “showed cytotoxicity”. In addition, the “PD-L1 expression on tumor cells” value in data set [7] is given as “upregulating PD-L1 expression”. Also, in data set [8] (docetaxel 30 mpk single dose intraperitoneal (FIG. 14) or intravenous (FIG. 15), emricasan intratumoral 10 mpk q.d 3-4 days after docetaxel), the “tumor control, systemic docetaxel added to intratumoral emricasan” value is “improved tumor control of emricasan”.

For `COc1cccc2c1C(=O)c1c(O)c3c(c(O)c1C2=O)C[C@@](O)(C(=O)CO)C[C@@H]3O[C@H]1C[C@H](N)[C@H](O)[C@H](C)O1` [doxorubicin], the “apoptosis induction in MC38 cells” value in [1] (24 hours) was “induced substantial apoptosis”. Moreover, in data set [2] (setting [13]), the “IFNβ production in MC38 cells” value is “slightly reduced IFNβ production”.

As to `C[C@H](NC(=O)C(=O)Nc1ccccc1C(C)(C)C)C(=O)N[C@@H](CC(=O)O)C(=O)COc1c(F)c(F)cc(F)c1F` [emricasan, (S)-3-((S)-2-(2-((2-(tert-butyl)phenyl)amino)-2-oxoacetamido)propanamido)-4-oxo-5-(2,3,5,6-tetrafluorophenoxy)pentanoic acid], the “apoptosis induced by docetaxel” value in [1] (addition of 10 μM emricasan to Docetaxel 10 μM, 24 hours, FIG. 5) is listed as “significantly reduced the apoptosis”. Also, the “apoptosis induced by doxorubicin” value in data set [1] (addition of 10 μM emricasan to Doxorubicin 1 μM, 24 hours, FIG. 4) is given as “significantly reduced the apoptosis”. Also, the “apoptosis induced by simvastatin” value in data set [1] (addition of 10 μM emricasan to Simvastatin 10 μM, 24 hours, FIG. 2) was “significantly reduced the apoptosis”. For the same compound, the “apoptosis induced by venetoclax” value in data set [1] (addition of 10 μM emricasan to Venetoclax 3 μM, 24 hours, FIG. 3) was “significantly reduced the apoptosis”. Further, in data set [1] (emricasan alone, 24 hours treatment, FIG. 1), the “apoptosis in MC38 cells” value is reported as “partially blocked the apoptosis”. In addition, the “IFNβ production in docetaxel treated MC38 cells” value in data set [2] (addition of 10 μM emricasan to docetaxel 10 μM, FIG. 9) is reported as “significantly enhanced the IFNβ production”. Besides, the “IFNβ production in doxorubicin treated MC38 cells” value in data set [2] (addition of 10 μM emricasan to doxorubicin 1 μM, FIG. 8) is listed as “significantly enhanced the IFNβ production”. For the same compound, the “IFNβ production in simvastatin treated MC38 cells” value in data set [2] (addition of 10 μM emricasan to simvastatin 10 μM, FIG. 7) is “significantly enhanced the IFNβ production”. Further, the “IFNβ production in MC38 cells” value in data set [2] (emricasan alone, FIG. 6) is listed as “slightly enhanced the IFNβ production”. Also, the “inhibition of caspase activity in tumor cells” value is recorded as “fully inhibiting the caspase activity” in data set [3] (10 μM of emricasan, docetaxel-treated MC38 cells, FIG. 10a); “fully inhibiting the caspase activity” in data set [9] (10 μM of emricasan, docetaxel-treated A549); “fully inhibiting the caspase activity” in data set [10] (10 μM of emricasan, docetaxel-treated MiaPaca-2). In addition, the “concentration at which emricasan began to effectively inhibit the caspase-3 activity” value in data set [3] (tumor cells, FIG. 10a-c) was ~1 µM. Further, the “concentration at which emricasan reached the maximum activity (caspase-3 inhibition)” value in data set [3] (tumor cells, FIG. 10a-c) is ~10 µM. Also, the “PD-L1 expression on tumor cells” value in [7] is “upregulated the PD-L1 expression”. In addition, in data set [8] (cured mice from the FIG. 15 study, rechallenged, FIG. 16), the “rejection of rechallenged tumor in cured mice” value is “able to reject rechallenged tumor; also recorded: able to reject rechallenged tumors more efficiently”. Also, in data set [8] (docetaxel intravenous 50 mpk single dose, emricasan intraperitoneal 20 mpk b.i.d 3 days after docetaxel, FIG. 18), the “systemic tumor control, systemic emricasan added to intravenous docetaxel” value is “improved the systemic tumor control of intravenously administered docetaxel”. Further, in [8] (emricasan alone intratumorally 10 mpk q.d 4 days, FIG. 13), the distal tumor control entry was “moderate”. Further, in [8] (emricasan alone intratumorally 10 mpk q.d 4 days, small MC38 tumors (~50 mm^3), FIG. 12), the “tumor control at the site of injection” value was “able control small MC38 tumors”. For the same compound, the “number of cured mice” value in [8] (study of FIG. 15: docetaxel intravenous 30 mpk single dose, emricasan intratumoral 10 mpk q.d 4 days) came to 5 mice. Also, the tumor control efficacy result in data set [11] and in [12] was “produced tumor control efficacy” each time.
